Data reported in ChEMBL document CHEMBL1201862, “PubChem BioAssay data set” (2004).
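Compound exposure: 48 hours, 5 concentrations, 96-well plates. GI50: concentration for 50% inhibition of growth.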 Active and inactive are the calls of the source. Rule as the data show it: active = GI50 up to about 1.1 µM and inactive = higher.

How the values were obtained:
Test in all cases: growth of human tumour cells (NCI), 48 h
[1] = test system: A498
[2] = test system: K562
[3] = test system: HCT-116
[4] = test system: SNB-75
[5] = test system: UO-31
[6] = test system: SF-295
[7] = test system: SN12C
[8] = test system: MDA-MB-231
[9] = test system: KM12
[10] = test system: RPMI-8226
[11] = test system: HCT-15
[12] = test system: U-251
[13] = test system: LOX IMVI
[14] = test system: SK-MEL-28
[15] = test system: 786-0
[16] = test system: M14
[17] = test system: SK-MEL-5
[18] = test system: SR
[19] = test system: SF-268
[20] = test system: EKVX
[21] = test system: HT-29
[22] = test system: A549
[23] = test system: DU-145
[24] = test system: BT-549
[25] = test system: UACC-62
[26] = test system: MOLT-4
[27] = test system: OVCAR-3
[28] = test system: SW-620
[29] = test system: SNB-19
[30] = test system: RXF 393
[31] = test system: CAKI-1
[32] = test system: TK-10
[33] = test system: Hs-578T
[34] = test system: NCI-H522
[35] = test system: NCI-H23
[36] = test system: T47D
[37] = test system: Malme-3M
[38] = test system: CCRF-CEM
[39] = test system: OVCAR-5
[40] = test system: NCI-H226
[41] = test system: ACHN
[42] = test system: SK-MEL-2
[43] = test system: HOP-92
[44] = test system: UACC-257
[45] = test system: NCI-H460
[46] = test system: NCI/ADR-RES
[47] = test system: COLO 205
[48] = test system: MDA-MB-435
[49] = test system: MCF7
[50] = test system: OVCAR-8
[51] = test system: PC-3
[52] = test system: HOP-62
[53] = test system: SK-OV-3
[54] = test system: OVCAR-4
[55] = test system: IGROV-1
[56] = test system: SF-539
[57] = test system: HCC 2998
[58] = test system: HL-60

Measured: GI50

c1ccc2c(c1)ccc1cc3cc(NCCCCNc4ccc5nc6c(ccc7ccccc76)cc5c4)ccc3nc12
active: [3] 0.176 µM | [8] 0.154 µM | [9] 0.236 µM | [10] 0.323 µM | [12] 0.199 µM | [15] 0.291 µM | [18] 0.0179 µM | [26] 0.184 µM | [28] 0.195 µM | [29] 0.352 µM | [36] 0.455 µM | [38] 0.427 µM | [39] 0.261 µM | [45] 0.231 µM | [49] 0.262 µM | [50] 0.167 µM | [52] 0.212 µM
0.701 µM: [11]
inactive: [1] 1.17 µM | [2] 1.63 µM | [4] 1.91 µM | [5] 1.21 µM | [6] 1.38 µM | [7] 1.41 µM | [13] 1.71 µM | [14] 2.1 µM | [16] 1.72 µM | [17] 1.32 µM | [19] 1.82 µM | [20] 2.03 µM | [21] 2.61 µM | [22] 1.51 µM | [23] 1.29 µM | [24] 2 µM | [25] 1.67 µM | [27] 1.99 µM | [30] 1.58 µM | [31] 2.01 µM | [32] 1.64 µM | [33] 1.96 µM | [34] 1.91 µM | [35] 2 µM | [37] 1.55 µM | [40] 1.73 µM | [41] 1.39 µM | [42] 1.91 µM | [43] 1.58 µM | [44] 1.72 µM | [46] 2.11 µM | [47] 1.69 µM | [48] 1.83 µM | [51] 1.31 µM | [53] 2.37 µM | [54] 2.22 µM | [55] 1.41 µM | [56] 1.35 µM

CCOC(=O)c1cc(-c2ccc([N+](=O)[O-])cc2)c([N+](=O)[O-])[nH]1
inactive: [2] 3.48 µM | [3] 4.85 µM | [4] > 10 µM | [5] 2.42 µM | [6] 2.1 µM | [7] > 10 µM | [9] 7.19 µM | [12] 3.46 µM | [15] 3.52 µM | [16] > 10 µM | [57] 4.38 µM | [18] 1.76 µM | [19] 4.53 µM | [20] 2.51 µM | [21] 2.69 µM | [22] 2.88 µM | [23] 2.96 µM | [24] 3.4 µM | [25] 3.03 µM | [26] 3.77 µM | [27] 2.7 µM | [29] 2.91 µM | [30] 2.18 µM | [32] 4.22 µM | [33] 3.34 µM | [34] 3.33 µM | [35] 2.84 µM | [36] 2.33 µM | [37] > 10 µM | [38] 2.6 µM | [39] 5.47 µM | [40] 1.46 µM | [41] 3.28 µM | [42] 2.72 µM | [43] 1.22 µM | [44] 1.6 µM | [45] 2.26 µM | [46] 3.1 µM | [48] 2.75 µM | [50] 4.24 µM | [53] > 10 µM | [54] 4.23 µM | [55] 5.26 µM | [56] > 10 µM
active: [8] 0.37 µM
2.9 µM: [11]

N#Cc1cc(-c2nc3cc(F)ccc3s2)ccc1N
active: [9] 0.059 µM | [57] < 0.01 µM | [20] 0.253 µM | [32] 0.034 µM | [35] < 0.01 µM | [36] < 0.012 µM | [39] 0.0702 µM | [45] < 0.0226 µM | [49] < 0.01 µM | [54] 0.718 µM | [55] < 0.0112 µM
inactive: [1] 3.39 µM | [2] > 100 µM | [3] 9.51 µM | [4] 1.59 µM | [5] 42 µM | [6] 20.4 µM | [7] > 100 µM | [8] 8.83 µM | [10] > 100 µM | [12] 12.4 µM | [13] > 100 µM | [14] > 100 µM | [15] 27.6 µM | [16] 33.6 µM | [19] 18.1 µM | [21] 1.97 µM | [22] 1.84 µM | [23] 53.1 µM | [24] 2.3 µM | [25] 14.9 µM | [26] > 100 µM | [27] 19.8 µM | [28] > 100 µM | [29] 18.2 µM | [30] 2.11 µM | [31] > 38.7 µM | [33] 15.8 µM | [34] > 53.1 µM | [37] > 79.1 µM | [38] > 100 µM | [40] 3.34 µM | [41] 1.36 µM | [42] 29.3 µM | [43] 4.08 µM | [44] > 100 µM | [46] > 61.2 µM | [47] 1.8 µM | [48] > 78.3 µM | [50] > 67.9 µM | [51] 24.7 µM | [52] 15.3 µM | [53] 20.7 µM | [58] > 100 µM | [56] 13.3 µM
0.384 µM: [11]
